# From patent US4939133A, “N-substituted-2-hydroxy-α-oxo-benzeneacetamides and pharmaceutical compositions having activity as modulators of the arachidonic acid cascade” (Warner-Lambert Company, priority 1985, dated 1990)
# Biological target: Human Leukocyte Lipoxygenase
# Assay: Human Leukocyte Lipoxygenase Assay (LDA-H / LDAH)
# Assay type: biochemical
# Conditions: 50% reduction of reaction rate vs control, E -number means X 10^-no.
# Experimental: Human Leukocyte Lipoxygenase Assay (LDA-H)
# Whole blood is collected from normal volunteers and spun in a refrigerated centrifuge for four minutes at 1°-6° C. at 3800 g. The buffy coat is manually separated and washed twice with chilled 0.83% NH4 Cl and centrifuged at 1000 RPM for ten minutes at 4° C. The white cell is suspended in culture media-EMEM supplemented with 6% Agamma human serum, tricine buffer, and neomycin and recentrifuged at 1000 g to yield a pellet containing the leukocytes used for the preparation of the acetone pentane powder.
# The acetone-pentane powder is prepared utilizing a modification of the procedure reported for human platelet lipoxygenase. See Siegel, et al, Arachidonate Metabolism via Lipoxygenase and 12-L-hydroperoxy-5-Eicostetraenoic acid Peroxidase Sensitive to Antiinflammatory Drugs, Proc. Natl. Acad. Sci., USA 77:308, 1980 and D. P. Wallach and V. R. Brown, a novel Preparation of Human Platlet Lipoxygenase, Biochem. Biophys. Acta. 663:361, 1981. Buffy coat prepared above is resuspended in 5-7 volumes of cold 0.1M Tris buffer, pH 7.4 containing 0.154M NaCl. The suspension is centrifuged at 13,300 g for ten minutes at 4° C. The resultant pellet was retained, resuspended in five volumes of cold acetone, recentrifuged at 13,300 g and resuspended in five volumes of cold pentane. The pentane suspension is centrifuged for ten minutes at 13,300 g to give a pellet which is dried in the cold under vacuum with periodic pulverization. The dry powder is stable for several weeks when stored at -88° C.
# Enzyme stock solution is prepared in the following manner. About 15 mg of the acetone-pentane powder sis suspended in 4 ml of cold tris buffer (0.1M, pH 7.4), allowed to stand for five minutes, and homogenized thorougly. The homogenate is sonicated three times for 15 seconds each time, diluted to 7 ml with cold tris buffer (0.1M, pH 7.4), and centrifuged at 4° C. for 60 minutes at 13,300 g. The supernatent is retained and diluted to a total of 10 ml with cold tris buffer (0.1M, pH 7.4) to give the stck enzyme solution. Additional dilutions of 2-50 fold are done as necessary to locate optimal enzyme reaction rate in the assay described below.
# Substrate solution is prepared at 100 μM or 1.0 μM concentrations of arachidonic acid or linoleic acid in 0.1M tris buffer, pH 9.0 containing 20% ethanol.
# The enzyme reaction is followed spectrophotometrically by the appearance of a conjugated diene product at 234 nm. The reaction is monitored at 24° C. using a Gilford Model 2600 spectrophotometer. […] The effects of inhibitors on the reaction are compared with control reactions run under indentical conditions. Routinely, each compounds of the present invention is incubated with the enzyme for five minutes prior to addition of substrate to initiate the reaction. Inhibition expressed as IC50 as molar concentration of the compound required to reduce reaction rate to 50% control.
compound,measurement,value
"COc1ccc(CCc2ccc(NC(=O)c3ccc(C)cc3O)cc2)cc1OC [Example 46, N-[4-[2-(3,4-Dimethoxyphenyl)ethyl]phenyl]-2-hydroxy-4-methylbenzamide]",IC50,14 µM
